In patent publication EP0366226A1, “Stabilized thiocarbonate solutions and the use thereof for controlling soil pests” (UNION OIL COMPANY OF CALIFORNIA, priority 1988, dated 1990):
Where a name gives a salt, the structure may show the parent alone.

What was measured:
[1] = Accelerated ageing at 84° C.: effect of additives on thiocarbonate half-life; format: physicochemical; details: parentheses = decrease
Protocol: The effect of elemental sulfur additions and the addition of free radical scavengers on the half-life of thiocarbonate solutions was determined by an accelerated adding procedure in which the compositions were stored at 84° C. in order to accelerate decomposition and thereby facilitate data acquisition. Incremental additions of 1.0, 3.0 and 5.0 weight percent elemental sulfur were made, and these corresponds to 0.16, 0.48 and 0.86 equivalents of sulfur per equivalent of ammonium sulfide, respectively. Since the solutions contained 1 equivalent of ammonium sulfide per equivalent of ammonium tetrathiocarbonate (based on the weight percent values for those components given above), the amount of ammonium polysulfide in the solution correspond, nominally, to 0.16, 0.48 and 0.86 equivalents polysulfide per equivalent of thiocarbonate for the 3 sulfur concentrations employed.

Fusarium oxysporum = assay: Fungicidal test, radial growth of mycelia from treated agar blocks; format: cell-based
Protocol: (§1) Thiocarbonate solutions were used in a test of their fungicidal properties. Cultures of four plant pathogenic fungi were grown upon potato dextrose agar at room temperature, in diffuse natural lighting. After one week, square blocks having 2 millimeter sides were cut from the edges of actively drawings mycelia spots on the agar.
(§2) The blocks were immersed in sterile deionized water, as a control, or in dilutions of thiocarbonate solutions using the sterile water, in a closed container. Subsequently, the blocks were removed and placed upon agar in clean plates, and mycelia were allowed to grow for one week.
(§3) Radial growth of mycelia colonies was measured for each of the six to eight replicate plates used for a particular fungus, and average colony radius was calculated. Percent control is defined by the following equation: […]
(§4) Concentrations given for solutions used to treat the agar blocks are expressed in grams of thiocarbonate solution per liter of diluted solution.

Phytophthora cinnamomi = assay: as above; format: cell-based
Protocol: as §1, §2, §3, §4

Sclerotium rolfsii = assay: as above; format: cell-based
Protocol: as §1, §2, §3, §4

Verticillium dahliae = assay: as above; format: cell-based
Protocol: as §1, §2, §3, §4

[2] = CS2 in equilibrium vapor phase over concentrated thiocarbonate solutions (gas chromatography); format: physicochemical; details: for equilibrium CS₂ concentration in the vapor phase: 24° C., stoichiometric aqueous solution, 12.9 weight percent equivalent carbon disulfide
Protocol: Accordingly, the amount of base, sulfide and/or polysulfide employed should be sufficient to reduce the carbon disulfide partial pressure of the solution by the desired amount, and the amount of additive required to achieve that effect can be easily determined by adding different, known quantities of base, sulfide and/or polysulfide to the desired thiocarbonate solution, confining the vapor space over the solution at 24° C. for a sufficient period of time, e.g. about 24 hours, and analyzing, the vapor phase by gas chromotography for carbon disulfide. Lower additive concentrations will result in somewhat higher CS₂ equilibrium concentrations (e.g. higher CS₂ partial pressures), and higher additive concentrations will result in lower CS₂ partial pressures.
A series of solutions containing 12.9 weight percent equivalent carbon disulfide as sodium tri- or tetrathiocarbonate were prepared by combining sodium hydroxide, deionized water, sulfur (in the case of tetrathiocarbonate only), hydrogen sulfide and carbon disulfide. In the stoichiometric solutions, the reactants were combined in proportions sufficient to provide sodium tri- or tetrathiocarbonate solutions containing 12.9 weight percent equivalent carbon disulfide without any excess reactant. In addition to the stoichiometric solutions, solutions were prepared with systematically increasing sodium hydroxide concentrations at constant equivalent carbon disulfide concentrations, so that excess base was provided in those solutions in the proportions given in the following table.
The respective solutions were prepared by combining the appropriate amounts of base, water, and elemental sulfur (when used to form the tetrathiocarbonate), in 250 ml. bottles. The contents were then tared, and the appropriate amounts of hydrogen sulfide gas were bubbled in with cooling as necessary to form 100 grams of each of the test solutions. The bottles were then capped with Mininert valves, and the appropriate amount of carbon disulfide was added by injecting with a syringe. All sample bottles were shaken overnight to complete the reaction and were then allowed to equilibrate 3 days at 24° C., and the vapor phase was then sampled and analyzed for carbon disulfide by gas chromotography. The results are reported in the following table and show the effects of increasing base concentrations on carbon disulfide partial pressure (carbon disulfide content of the equilibrium vapor phase). Hydrogen sulfide was not detected in the vapor phase of these formulations at an H₂S detection limit of 100 ppmv.
The operation described in Example 19 was repeated with the exception that sodium sulfide (Na₂S) was substituted for excess base. The sodium sulfide was introduced by forming solutions containing incrementally greater amounts of sodium hydroxide and then adding additional amounts of hydrogen sulfide equivalent to the amount of excess sodium hydroxide to convert the excess sodium hydroxide to sodium sulfide in situ.

[3] = Effect of pH on production of CS2 from thiocarbonates in citrate-phosphate buffers (gas chromatography of air); format: physicochemical
Protocol: Pure carbon disulfide was also injected, for comparison. A syringe was used to periodically sample air in the bottle, and the air was analyzed by gas chromotography.

[4] = system: sugar beet cyst nematodes (Heterodera spp.); assay: Soil treatment of infested sugar beets; format: in vivo; details: about 94 kilograms per hectare, dissolved in irrigation water
Protocol: Sugar beets, infested with sugar beet cyst nematodes (Heterodera spp.), were treated by application to the soil of about 94 kilograms per hectare of CaCS₄, dissolved in irrigation water.

Fusarium spp. = assay: Petri dish tests in potato dextrose agar and broth; format: cell-based; details: when the broth also contained Trichoderma spp., read-out: solution concentration with which control was obtained
Excerpt: In petri dish tests of CaCS₄ against the fungus Fusarium spp., control with solutions containing less than about 10 grams per liter of the compound, in both potato dextrose agar and potato dextrose broth, was obtained using the solution when the broth also contained another fungus, Trichoderma spp.

[5] = Degradation time in sandy loam soil at different moisture (CS2 in air space by gas chromatography); format: physicochemical
Protocol: A sandy loam soil was placed in 1-liter glass bottles, fitted with stoppers having fluorocarbon liners and silicone rubber septa, to give a soil depth of about 4 cm. Water was added to the soil, in quantities to obtain 50 and 100 percent soil saturation. Thiocarbonate solution or carbon disulfide was then injected near the bottom of the soil layer, the bottles were promptly sealed, and the air space in the bottles was sampled at intervals with a syringe, for gas chromatographic analysis of CS₂. The results are summarized below, wherein degradation time is the number of hours required to achieve the maximum CS₂ concentration in the air space.

[6] = system: nitrification of ammoniacal fertilizers in soil; assay: Inhibition of nitrification of urea in sandy loam soil plots; details: 5 weight percent solution at 100 liters per acre after 200 lbs. urea per acre; versus untreated plot
Excerpt: The ability of the described thiocarbonate compounds to inhibit nitrification of ammoniacal fertilizers in soil can be illustrated by applying to two separate plots of sandy loam soil a urea solution in irrigation water at a rate corresponding to 200 lbs. urea per acre with sufficient water to increase the soil water content to at least 50 percent. This application can be followed, on one of the plots treated with the urea solution and within one hour of application of the urea solution, with application of an aqueous solution containing 5 weight percent calcium tetrathiocarbonate applied at a rate of 100 liters per acre in sufficient irrigation water to increase the soil water content to 100 percent of saturation.

[7] = Solvency of aqueous thiocarbonate solutions for urea; format: physicochemical
Protocol: Urea was added to a 41.5 percent, by weight, aqueous solution of calcium tetrathiocarbonate until the solubility limit of urea was reached. At room temperature, the solution dissolved 122 percent by weight urea. The resulting solution was 55 percent urea, 18.6 percent calcium tetrathiocarbonate, and 26.3 percent water, by weight. Thus, the solvency of the aqueous solution of calcium tetrathiocarbonate for urea was at least as great as that of water alone. Similarly, a 46 percent solution of potassium tetrathiocarbonate dissolved 100 percent of its own weight of urea. Similar results were obtained with other tri- and tetrathiocarbonates of alkali metal and alkaline earth metals.

[8] = additive Concentration 0.5 Wt. %
[9] = additive Concentration 1.0 Wt. %
[10] = additive Concentration 2.0 Wt. %
[11] = additive Concentration 5.0 Wt. %
[12] = 1 g/l, listed as Na₂CS₄ (10.6%CS₂)
[13] = 10 g/l, listed as Na₂CS₄ (10.6%CS₂)
[14] = Base 0.00 equivalent per equivalent of CS2, sodium salt, 12.9 weight percent equivalent CS2
[15] = Base 0.02 equivalent per equivalent of CS2
[16] = Base 0.04 equivalent per equivalent of CS2
[17] = Base 0.08 equivalent per equivalent of CS2
[18] = Base 0.12 equivalent per equivalent of CS2
[19] = Sulfide 0.02 equivalent per equivalent of CS2
[20] = Sulfide 0.04 equivalent per equivalent of CS2
[21] = Sulfide 0.08 equivalent per equivalent of CS2
[22] = Sulfide 0.12 equivalent per equivalent of CS2
[23] = Sulfide (Na2S) 0.00 equivalent per equivalent of CS2, sodium salt, 12.9 weight percent equivalent CS2
[24] = 1 g/l, listed as CaCS₄ (2.8%CS₂)
[25] = 10 g/l, listed as CaCS₄ (2.8%CS₂)
[26] = 1 g/l, listed as K₂CS₄ (9.43%CS₂)
[27] = 10 g/l, listed as K₂CS₄ (9.43%CS₂)

O=C(O)CC(O)(CC(=O)O)C(=O)O [Citric Acid, Na Salt]
Increase (Decrease) in Half-Life, % [1, 8]: 0%
Increase (Decrease) in Half-Life, % [1, 9]: 0%
Increase (Decrease) in Half-Life, % [1, 10]: 0%

Oc1ccc(O)cc1 [Hydroquinone]
Increase (Decrease) in Half-Life, % [1, 8]: 0%

NC(N)=O [Urea]
Increase (Decrease) in Half-Life, % [1, 11]: 0%

O=C1O[C@H]([C@@H](O)CO)C(O)=C1O [Ascorbic Acid]
Increase (Decrease) in Half-Life, % [1, 8]: 0%
Increase (Decrease) in Half-Life, % [1, 9]: 0%
Increase (Decrease) in Half-Life, % [1, 10]: 0%

Elemental Sulfur
Increase (Decrease) in Half-Life, % [1, 9]: 0%
Increase (Decrease) in Half-Life, % ([1]; additive Concentration 3.0 Wt. %): 16%
Increase (Decrease) in Half-Life, % [1, 11]: 22%

S=C(S)SS [Na₂CS₄, sodium tetrathiocarbonate]
Percent Control Fusarium oxysporum (Fusarium oxysporum; [12]): 4%
Percent Control Fusarium oxysporum (Fusarium oxysporum; [13]): 6%
Percent Control Fusarium oxysporum (Fusarium oxysporum; 100 g/l thiocarbonate solution per liter of diluted solution, listed as Na₂CS₄ (10.6%CS₂)): 100%
Percent Control Phytophthora cinnamomi (Phytophthora cinnamomi; [13]): 37%
Percent Control Sclerotium rolfsii (Sclerotium rolfsii; [13]): 100%
Percent Control Verticillium dahliae (Verticillium dahliae; [12]): 23%
equilibrium CS₂ concentration in the vapor phase [2]: approximately 14 volume percent
CS₂ in Equilibrium Vapor at 24° C., Vol. % [2, 14]: 14.4 Vol. %
CS₂ in Equilibrium Vapor at 24° C., Vol. % [2, 15]: 0.87 Vol. %
CS₂ in Equilibrium Vapor at 24° C., Vol. % [2, 16]: 0.47 Vol. %
CS₂ in Equilibrium Vapor at 24° C., Vol. % [2, 17]: 0.29 Vol. %
CS₂ in Equilibrium Vapor at 24° C., Vol. % [2, 18]: 0.27 Vol. %
CS₂ in Equilibrium Vapor at 24° C., Vol. % [2, 19]: 6.60 Vol. %
CS₂ in Equilibrium Vapor at 24° C., Vol. % [2, 20]: 0.74 Vol. %
CS₂ in Equilibrium Vapor at 24° C., Vol. % [2, 21]: 0.12 Vol. %
CS₂ in Equilibrium Vapor at 24° C., Vol. % [2, 22]: 0.13 Vol. %
CS₂ in Equilibrium Vapor at 24° C., Vol. % [2, 23]: 14.4 Vol. %

S=C(S)SS [CaCS₄, calcium tetrathiocarbonate]
Half-life (minutes) for production of carbon disulfide ([3]; pH 5.2, 125 milligrams of thiocarbonate ion per liter): 1 min
Half-life (minutes) for production of carbon disulfide ([3]; pH 6.0): 1.8 min
Half-life (minutes) for production of carbon disulfide ([3]; pH 7.0): 2.7 min
Half-life (minutes) for production of carbon disulfide ([3]; pH 8.0, CaCS4 values above pH 7 called unreliable): 8.0 min
Percent Control Fusarium oxysporum (Fusarium oxysporum; [24]): 3%
Percent Control Fusarium oxysporum (Fusarium oxysporum; [25]): 18%
Percent Control Fusarium oxysporum (Fusarium oxysporum; 100 g/l thiocarbonate solution per liter of diluted solution, listed as CaCS₄ (2.8%CS₂)): 100%
Percent Control Phytophthora cinnamomi (Phytophthora cinnamomi; [24]): 56%
Percent Control Phytophthora cinnamomi (Phytophthora cinnamomi; [25]): 56%
Percent Control Sclerotium rolfsii (Sclerotium rolfsii; [24]): 46%
Percent Control Sclerotium rolfsii (Sclerotium rolfsii; [25]): 62%
Percent Control Verticillium dahliae (Verticillium dahliae; [24]): 13%
Percent Control Verticillium dahliae (Verticillium dahliae; [25]): 22%
counts and viability of nematode larvae in the soil following treatment [4]: remained high, but the larvae were not viable
minimal effective concentration (Fusarium spp.): < 10000 µg/mL
Degradation Time ([5]; Soil Moisture 0 % of Saturation, hours to maximum CS2 concentration in the air space): 4 h
nitrification of urea in the treated soil [6]: nitrified more slowly
urea dissolved by the solution ([7]; 41.5 percent by weight aqueous solution, room temperature): 122 percent by weight

S=C(S)SS [K₂CS₄, potassium tetrathiocarbonate]
Percent Control Fusarium oxysporum (Fusarium oxysporum; [26]): 8%
Percent Control Fusarium oxysporum (Fusarium oxysporum; [27]): 10%
Percent Control Fusarium oxysporum (Fusarium oxysporum; 100 g/l thiocarbonate solution per liter of diluted solution, listed as K₂CS₄ (9.43%CS₂)): 76%
Percent Control Phytophthora cinnamomi (Phytophthora cinnamomi; [26]): 56%
Percent Control Phytophthora cinnamomi (Phytophthora cinnamomi; [27]): 68%
Percent Control Sclerotium rolfsii (Sclerotium rolfsii; [26]): 42%
Percent Control Sclerotium rolfsii (Sclerotium rolfsii; [27]): 8%
Percent Control Verticillium dahliae (Verticillium dahliae; [26]): 27%
Percent Control Verticillium dahliae (Verticillium dahliae; [27]): 15%
Degradation Time ([5]; Soil Moisture 50 % of Saturation): 5 h
Degradation Time ([5]; Soil Moisture 100 % of Saturation): 48 h
urea dissolved by the solution ([7]; 46 percent solution): 100% of its own weight

CCN(CC)CC [Triethylamine]
Increase (Decrease) in Half-Life, % [1, 9]: 0%

COc1ccc(O)cc1 [p-Methoxyphenol]
Increase (Decrease) in Half-Life, % [1, 8]: 0%
Increase (Decrease) in Half-Life, % [1, 9]: 0%
Increase (Decrease) in Half-Life, % [1, 10]: 0%

S=C(S)S [Trithiocarbonate, sodium trithiocarbonate]
equilibrium CS₂ concentration in the vapor phase [2]: 27 volume percent
CS₂ in Equilibrium Vapor at 24° C., Vol. % [2, 14]: 27.5 Vol. %
CS₂ in Equilibrium Vapor at 24° C., Vol. % [2, 15]: 34.2 Vol. %
CS₂ in Equilibrium Vapor at 24° C., Vol. % [2, 16]: 30.0 Vol. %
CS₂ in Equilibrium Vapor at 24° C., Vol. % [2, 17]: 0.67 Vol. %
CS₂ in Equilibrium Vapor at 24° C., Vol. % [2, 18]: 0.16 Vol. %
CS₂ in Equilibrium Vapor at 24° C., Vol. % [2, 19]: 45.9 Vol. %
CS₂ in Equilibrium Vapor at 24° C., Vol. % [2, 20]: 1.39 Vol. %
CS₂ in Equilibrium Vapor at 24° C., Vol. % [2, 21]: 0.57 Vol. %
CS₂ in Equilibrium Vapor at 24° C., Vol. % [2, 22]: 0.42 Vol. %
CS₂ in Equilibrium Vapor at 24° C., Vol. % [2, 23]: 27.5 Vol. %
